Among the data in PubChem BioAssay (NCI) are GI50 and TGI values, retold here.

Test systems include SK-MEL-2 melanoma; HCC-2998 colon; HOP-92 NSCLC; SNB-19 CNS; U251 CNS; LOX IMVI melanoma; UACC-257 melanoma; A498 renal; OVCAR-3 ovarian; EKVX NSCLC.
What all share (assay): growth of human tumour cells (NCI), 48 h

SMILES strings stand for the structures.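 Five compound concentrations were applied to cells in 96-well plates for 48 hours; endpoints were derived by simple linear interpolation of the resulting dose-response curve. GI50 = concentration required for 50% inhibition of growth. TGI denotes the concentration required for complete inhibition of growth.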

Consider `O=Cc1ncc(-c2ccc(C(F)(F)F)cc2)c(NC2CCCCCC2)n1`, for which the GI50 in the experiment on SK-MEL-2 melanoma, in the experiment on HCC-2998 colon, with HOP-92 NSCLC, with SNB-19 CNS, in the experiment with U251 CNS and with LOX IMVI melanoma was more than 10 µM in each case. Besides, the GI50 in the experiment on UACC-257 melanoma, in the experiment on A498 renal and with OVCAR-3 ovarian was more than 10 µM in each case. For the same compound, the TGI with SK-MEL-2 melanoma, with HCC-2998 colon, in the experiment on HOP-92 NSCLC, in the experiment on SNB-19 CNS, with U251 CNS and in the experiment on LOX IMVI melanoma was more than 10 µM throughout. In addition, the TGI in the experiment on UACC-257 melanoma, with A498 renal and in the experiment on OVCAR-3 ovarian was more than 10 µM each time.
On to `COC(=O)C1C(=O)O[C@@H](c2ccc(OC)cc2)C1C(=O)OC` (stereo partly drawn), for which the TGI in the experiment with HCC-2998 colon, with HOP-92 NSCLC, in the experiment with SNB-19 CNS, with U251 CNS, in the experiment with LOX IMVI melanoma and in the experiment with UACC-257 melanoma was more than 100 µM in each case. The TGI in the experiment on A498 renal, with OVCAR-3 ovarian and in the experiment on EKVX NSCLC was more than 100 µM each time.
Regarding `Clc1cccc(Cn2cc(Cc3cn(Cc4cccc(Cl)c4)c4ccccc34)c3ccccc32)c1`, the GI50 with SK-MEL-2 melanoma is more than 100 µM; in the experiment on HCC-2998 colon it was more than 100 µM; in the experiment with HOP-92 NSCLC, 22.5 µM; in the experiment on SNB-19 CNS it was more than 100 µM; in the experiment with U251 CNS, more than 100 µM; in the experiment on LOX IMVI melanoma, 33.3 µM. Besides, the GI50 in the experiment with UACC-257 melanoma, with A498 renal and in the experiment with OVCAR-3 ovarian was more than 100 µM each time. The TGI in the experiment on SK-MEL-2 melanoma, with HCC-2998 colon, in the experiment with HOP-92 NSCLC, in the experiment with SNB-19 CNS, in the experiment with U251 CNS and in the experiment on LOX IMVI melanoma was more than 100 µM throughout. In addition, the TGI in the experiment on UACC-257 melanoma, in the experiment with A498 renal and in the experiment with OVCAR-3 ovarian was more than 100 µM in each case.
Take `O=C(/C=C/c1ccccc1O)c1ccccc1`: the GI50 was 17.9 µM with HCC-2998 colon; 8.77 µM in the experiment on HOP-92 NSCLC; 12.6 µM in the experiment on SNB-19 CNS; 4.18 µM in the experiment on U251 CNS; 2.09 µM in the experiment with LOX IMVI melanoma; 12.1 µM in the experiment on UACC-257 melanoma. The GI50 in the experiment with A498 renal was 15.2 µM; with OVCAR-3 ovarian, 3.14 µM; in the experiment on EKVX NSCLC, 11 µM. The TGI with HCC-2998 colon was found to be 32.6 µM; in the experiment with HOP-92 NSCLC, 23 µM; in the experiment on SNB-19 CNS, 25.3 µM; with U251 CNS, 14.4 µM; with LOX IMVI melanoma it was 5.11 µM; with UACC-257 melanoma it was 25.3 µM. Besides, the TGI in the experiment on A498 renal was 28.6 µM; in the experiment with OVCAR-3 ovarian, 12.3 µM; in the experiment with EKVX NSCLC, 29.2 µM.
With `NC(=O)c1cccc(N)c1`, the GI50 in the experiment with SK-MEL-2 melanoma, with HCC-2998 colon, in the experiment on HOP-92 NSCLC, in the experiment on SNB-19 CNS, with U251 CNS and in the experiment on LOX IMVI melanoma was more than 100 µM throughout. Moreover, the GI50 with A498 renal, in the experiment with OVCAR-3 ovarian and with EKVX NSCLC was more than 100 µM each time. In addition, the TGI with SK-MEL-2 melanoma, with HCC-2998 colon, in the experiment on HOP-92 NSCLC, with SNB-19 CNS, with U251 CNS and in the experiment on LOX IMVI melanoma was more than 100 µM each time. Further, the TGI with A498 renal, in the experiment with OVCAR-3 ovarian and in the experiment on EKVX NSCLC was more than 100 µM throughout.
Take `CCCCCCCCC(=O)CCCCCCCCC(=O)O`: the TGI with SK-MEL-2 melanoma is more than 100 µM; with HOP-92 NSCLC, 35.2 µM; in the experiment with SNB-19 CNS, more than 100 µM; in the experiment with U251 CNS, more than 100 µM; with LOX IMVI melanoma, 30.2 µM; in the experiment with UACC-257 melanoma, more than 100 µM. In addition, the TGI in the experiment on A498 renal turned out to be 47.8 µM; in the experiment on OVCAR-3 ovarian, 40.1 µM; in the experiment with EKVX NSCLC, 93.3 µM.
In the case of `C=CCOC1=C2CC[C@H](O)[C@@]2(C)CCC1=O`, the TGI in the experiment on HCC-2998 colon, in the experiment on HOP-92 NSCLC, in the experiment with SNB-19 CNS, in the experiment with U251 CNS, in the experiment on LOX IMVI melanoma and with UACC-257 melanoma was more than 100 µM throughout. The TGI with A498 renal, with OVCAR-3 ovarian and in the experiment with EKVX NSCLC was more than 100 µM throughout.
With `O=C(c1ccc(F)c(F)c1Nc1ccc(I)cc1F)N1CC(O)([C@H]2CCCCN2)C1`, the GI50 was 0.135 µM with SK-MEL-2 melanoma; 0.223 µM in the experiment on HCC-2998 colon; 0.406 µM in the experiment with HOP-92 NSCLC; 8.08 µM with SNB-19 CNS; 3.5 µM in the experiment with U251 CNS; 1.05 µM with LOX IMVI melanoma. The GI50 with UACC-257 melanoma was 0.08 µM; with A498 renal, 1.11 µM; in the experiment with OVCAR-3 ovarian it was 12.1 µM. Also, the TGI with SK-MEL-2 melanoma turned out to be 0.702 µM; in the experiment with HCC-2998 colon it was 2.62 µM; with HOP-92 NSCLC, 2.77 µM; in the experiment on SNB-19 CNS it was 22.8 µM; in the experiment on U251 CNS, 18.9 µM; in the experiment on LOX IMVI melanoma, 5.49 µM. The TGI came out at 0.472 µM with UACC-257 melanoma, 3.31 µM in the experiment on A498 renal and 25.2 µM in the experiment on OVCAR-3 ovarian.
In the case of `Cn1c(=O)c(Sc2ccccc2F)cc2cnc(NC3CCOCC3)nc21`, the GI50 in the experiment on SK-MEL-2 melanoma, in the experiment with HCC-2998 colon, in the experiment on HOP-92 NSCLC, in the experiment on SNB-19 CNS, with U251 CNS and with LOX IMVI melanoma was more than 25 µM each time. The GI50 in the experiment with UACC-257 melanoma, in the experiment with A498 renal and with OVCAR-3 ovarian was more than 25 µM in each case. Besides, the TGI in the experiment on SK-MEL-2 melanoma, in the experiment with HCC-2998 colon, in the experiment on HOP-92 NSCLC, with SNB-19 CNS, in the experiment with U251 CNS and in the experiment with LOX IMVI melanoma was more than 25 µM in each case. In addition, the TGI in the experiment with UACC-257 melanoma, in the experiment on A498 renal and with OVCAR-3 ovarian was more than 25 µM each time.
On to `Cc1ccc(NC(=O)C2C(=O)C(=O)N(c3ccc(C)cc3)C2=O)cc1` (stereo not drawn), for which the TGI with SK-MEL-2 melanoma, in the experiment with HCC-2998 colon, in the experiment with HOP-92 NSCLC, with SNB-19 CNS, in the experiment on U251 CNS and in the experiment on UACC-257 melanoma was more than 100 µM each time. For the same compound, the TGI with A498 renal and in the experiment on EKVX NSCLC was more than 100 µM throughout.
